One data set relates to A498. The data set can be described thus: XTT cell viability assay, A498. The format is cell-based, human. The note with it: Homo sapiens, A498; XTT assay (48 h); standard deviation of 10%; read-out: EC50 (μM) Kidney A498. The method, then: (§1) Fifty microliters of sodium 3′-[1-phenylaminocarbonyl)-3,4-tetrazolium]-bis(4-methoxy-6-nitro) benzene sulfonic acid hydrate (XTT) reagent was added to each well. The assay is based on the cleavage of the yellow tetrazolium salt XTT to form an orange formazan dye by metabolically active cells. The absorbance of the formazan product, reflecting cell viability, was measured at 490 nm. Each assay was performed in quadruplicate.
(§2) Compounds #1-#14 have been assayed as potential anti-proliferative agents against a panel of human breast head and neck, and kidney tumor cells and hematological malignancies, selected on the basis of their aggressiveness (e.g. incurable triple-negative breast cancer cells: MDA-MB-231; kidney ccRCC cells: RCC4, A498 and 786-O and 786R; head and neck cancer cells: CAL33, CAL33RR, CAL27, and CAL27RR; acute myeloid cell lines: OCI-AML2, OCI-AML3, MolM13, and MolM14; myelodysplastic cell line: SM1; and chronic myeloid cell line: CML). All these cell lines share as common denominator the expression of CXCR1 and CXCR2. The EC50 values have been measured by a XTT colorimetric assay, and compared to those of SB-225002, used as a reference; the results are listed in Table 1.
In general terms: Tetrazolium dyes change colour on reduction, which living cells bring about.

Another data set has as its system CAL33RR. Put plainly: XTT cell viability assay, CAL33RR. It counts as cell-based. As to conditions: Homo sapiens, light or radiation study; XTT assay (48 h); resistant to irradiation and cisplatin; standard deviation of 10%; read-out: EC50 (μM) Head and Neck CAL33RR. The method, then:
as §1, §2

In a further data set the test system is CAL27. The data set can be described thus: XTT cell viability assay, CAL27. The format is cell-based, human. The note with it: for EC50: XTT assay (48 h), standard deviation of 10%, read-out: EC50 (μM) Head and Neck CAL27. How it is done: A, B: Naive (Cal27, A), and cisplatine-resistant (Cal27R, B) Cal27 cells, were treated with compound #1 or cisplatine (1 to 10 μM) for 48 hr. Cell viability was measured by XTT assays;
C, D: Cal27 (C), cal27R (D), were treated with 2.5 μM compound #1, 2.5 μM cisplatin for 24 h to 96 h. The metabolism of cells was measured by XTT assay.
as §1, §2

For another data set, the system named is OCI-AML2. Put plainly: XTT cell viability assay, OCI-AML2. The note with it: Homo sapiens, OCI-AML2; XTT assay (48 h); standard deviation of 10%; read-out: EC50 (μM) AML OCI-AML2. It counts as cell-based, human. The method, then:
as §1, §2

The next data set deals with MolM14. Put plainly: XTT cell viability assay, MolM14. It counts as cell-based, human. As to conditions: Homo sapiens, MOLM-14; XTT assay (48 h); standard deviation of 10%; read-out: EC50 (μM) AML MolM14. The method, then: as §1, §2
The next data set concerns SKM1. The data set can be described thus: XTT cell viability assay, SKM1. It counts as cell-based, human. The note with it: Homo sapiens, SKM-1; XTT assay (48 h); standard deviation of 10%; read-out: EC50 (μM) MDS SKM1. How it is done: as §1, §2
For another data set, the system named is TF and CC cells. Put plainly: FACS apoptosis markers, primary RCC cells. The format is cell-based, human. The note with it: 1 μM, 48 h. The method, then:
(§3) C: Primary RCC cells (TF and CC) and normal renal cells (15S) were treated with compound #1 (1 to 5 μM) for 48 h. Cells were stained with the PI/annexin-V-fluos staining kit according to the manufacturer's indications. Histograms show both annexin-V+/PI− cells (open bars) and annexin-V+/PI+ cells (filled bars). *P<0.05; **P<0.01; ***P<0.001.
(§4) Apoptosis analysis: After stimulation, cells were washed with ice-cold PBS and were stained with the annexin-V-fluos staining kit (Roche, Meylan, France) according to the manufacturer's procedure. Fluorescence was measured by using the FL2 (AV) and FL3 (propidium iodide, PI) channels of a fluorescence-activated cell sorter apparatus (Calibur cytometer).

The test system of the next data set is healthy cells 15S. The data set can be described thus: FACS apoptosis markers, normal renal cells. It counts as cell-based, human. The note with it: 48 h. The method, then:
as §3, §4

A further data set has as its system HuVEC. The data set can be described thus: HuVEC viability/proliferation (XTT), basal and CXCL5/CXCL7-dependent. The format is cell-based. The note with it: XTT 48 h; 100 ng/ml CXCL7 or CXCL5, 0.25 or 0.5 μM. How it is done:
C: HuVEC were grown in the presence of different concentrations of compound #1 for 48h. Cell viability was measured by XTT assays;
D: HuVEC were incubated with 100 ng/ml CXCL7 or CXCL5, in presence of 0.25 or 0.5 μM compound #1 for 48 h. Cell viability was measured by XTT assays;
as §1

The next data set deals with ERK signaling pathway. Put plainly: Immunoblotting of p-ERK in CXCL5-stimulated HuVEC. The format is cell-based. The note with it: 5 μM pre-treatment 1 h, CXCL5 50 ng/ml 10 min. The method, then: E: HuVEC were pre-treated with 5 μM compound #1 for 1 h then stimulated with 50 ng/ml CXCL5 for 10 min. p-ERK levels were analyzed by immunoblotting. ERK and HSP60 served as loading controls *P<0.05; **P<0.01; ***P<0.001.
Cells were lysed in buffer containing 3% SDS, 10% glycerol and 0.825 mM Na2HPO4. 30 to 50 μg of proteins were separated on 10% SDS-PAGE, transferred onto a PVDF membrane (Immobilon, Millipore, France) and then exposed to the appropriate antibodies. Proteins were visualized with the ECL system using horseradish peroxidase-conjugated anti-rabbit or anti-mouse secondary antibodies.

Data set [1] can be described thus: Pharmacokinetics after oral gavage in mice. It counts as in vivo. The note with it: oral gavage 50 mg/Kg. How it is done:
Compound #1 was then formulated at 7.6 mg/mL, and administrated by oral gavage at 50 mg/Kg (n=12 mice) and pharmacokinetic parameters have been measured (Table 2).

The test system of a further data set is DAOY and HD-MB03 cells. Put plainly: Proliferation test, medulloblastoma cells. The format is cell-based. As to conditions: 1 μM, cell counts days 1 to 8, vs DMSO. How it is done: FIG. 7: Inhibition of proliferation of medulloblastoma cells by compound #1. Cells were treated or not with 1 μM compound #1 for the indicated days. Cells were counted at the indicated days. * p<0.05; ** p<0.01; *** p<0.001.
1500 DAOY and HD-MB03 cells were seeded in a 6-well plate with or without treatment (1 μM of compound #1 or DMSO as control “CONT”), at 37° C. in a 5% CO2 incubator. Cells were dissociated using trypsone 1X-EDTA (Gibco® Life Technologies) and were counted with Coulter Beckman® counter (Villepinte) at days 1, 4, 6, 7, and 8. Each assay was performed in triplicate.

Molecules are shown by their SMILES. Read-outs that look alike come from different tables or passages of the source. Where only a bound is given, the exact number is not on record here.

Consider `O=C(Nc1cccc(Cl)c1)Nc1nc2ccc([N+](=O)[O-])cc2s1` [Compound #1, 1-(3-chlorophenyl)-3-(6-nitrobenzo[d]thiazol-2-yl)urea], for which the EC50 in the data set with A498 worked out at 2.5 µM; in the data set with CAL33RR it was 3 µM; in the data set on CAL27 (Homo sapiens, CAL-27, 48 h) it was 2 µM; in the data set with CAL27, 3 µM; in the data set with OCI-AML2, 5 µM; in the data set with MolM14, 4 µM. In the data set on SKM1, the EC50 worked out at 5 µM. Besides, the “time of treatment to total inhibition of proliferation” value in the data set on CAL27 (Cal27 cells, 2.5 μM, XTT 24 h to 96 h) is reported as “approximately 70 hours”. Also, the “apoptosis markers in TF and CC cells” value in the data set on TF and CC cells was “puts into exergue the apoptosis markers in TF and CC cells”. The “apoptosis markers in healthy cells 15S” value in the data set on healthy cells 15S is on record as “not the case with healthy cells 15S”. For the same compound, in the data set with HuVEC, the “basal and CXCL5/CXCL7-dependent HuVEC proliferation” value was “inhibits basal and CXCL5/CXCL7-dependent HuVEC proliferation”. In addition, in the data set with ERK signaling pathway, the “ERK signaling pathway (p-ERK) in HuVEC” value is recorded as “inhibition of the ERK signaling pathway”. This compound also showed a half-life in data set [1] (mouse, in vivo) of more than 3.17 h. In addition, the AUC in [1] (mouse, in vivo, po, 50 mg/kg, read-out: AUC lastPO (converted)) was approximately 1420 ng·h/mL. Moreover, the Tmax in [1] was 0.5 h. Further, in data set [1] (50 mg/kg), the “AUC lastPO” value amounted to 84965 ± 9367 ng·min/mL. In the data set on DAOY and HD-MB03 cells, the “proliferation of DAOY and HD-MB03 cells” value is “significatively reduces the proliferation”.

A word on the EC50: it is the concentration giving half of the maximal effect. Broadly, the half-life is the time in which the quantity being followed falls by half. A high value points to slow loss. The AUC is concentration integrated over time. Usually Tmax stands for the time from dosing to the highest level.

The record behind these values is patent US20210380547A1, “UREA DERIVATIVES FOR TREATING AND/OR PREVENTING CANCER” (CENTRE NATIONAL DE LA RECHERCHE SCIENTIFIQUE, priority 2018, published 2021).
